Assay results reported in article PMC4435632, “Phase 1 study of ixazomib, an investigational proteasome inhibitor, in advanced non-hematologic malignancies” (Investigational New Drugs, 2015).

Key:
[1] = biological target: chymotrypsin-like activity of the β5 subunit of the 20S proteasome (Homo sapiens, UniProt P28074); assay: Whole blood 20S proteasome activity, fluorogenic assay; assay type: in vivo
Method: Blood samples for determination of plasma ixazomib concentrations for pharmacokinetic analysis (3 mL) and for measurement of whole blood 20S proteasome activity (1 mL) were collected at the following timepoints for all patients in the dose-escalation cohort and for the first 12 patients completing cycle 1 while receiving protocol-specified treatment at the MTD: pre-dose (within 1 h) on days 1, 4, 8, and 11 of cycle 1, and on day 1 of cycle 2; and on days 1 and 11, cycle 1, at 5, 15 and 30 min, and 1, 2, 4, 9, 24, 48, 96 (day 11 only), 120 (day 11 only), and 168 (day 11 only) h post-dose. A limited sampling schedule was employed for the remaining patients in the MTD expansion cohorts.
Plasma concentrations of ixazomib were measured using a good laboratory practice-validated liquid chromatography/tandem mass spectrometry (LC/MS/MS) assay with a lower limit of quantification of 0.5 ng/mL. Whole blood 20S proteasome activity (expressed as percent proteasome inhibition relative to baseline) was measured using an established fluorogenic assay, which evaluates the chymotrypsin-like activity of the β5 subunit of the 20S proteasome, the primary target of ixazomib. […]
All efficacy and safety data were summarized using descriptive statistics. Pharmacokinetic and pharmacodynamic parameters were calculated using noncompartmental methods (WinNonlin software v5.3).

[2] = test system: advanced non-hematologic malignancies; assay: Disease response (RECIST 1.0 / modified PCWG2); assay type: in vivo, human
Source text: AEs were monitored throughout the study and were graded according to National Cancer Institute Common Terminology Criteria for Adverse Events (NCI-CTCAE) v3.0. Response assessments were undertaken by investigators using a consistent imaging modality in accordance with RECIST 1.0 [23] on days 18–21 of cycle 2 and subsequent cycles. For patients with prostate cancer, response and progressive disease were based on RECIST for measurable neoplastic disease or on measurement of serum PSA per modified PCWG2 criteria in the absence of measurable sites.
The safety population included all patients who received ≥1 dose of ixazomib, and the DLT-evaluable population, which was used for determination of the MTD, comprised patients who received all cycle 1 doses of ixazomib or experienced a DLT in cycle 1. […] The response-evaluable population included all patients who received ≥1 dose of ixazomib, had measurable disease at baseline, and had ≥1 post-baseline disease assessment. Approximately 16 response-evaluable patients were planned to be evaluated in each MTD expansion cohort.

Compound: CC(C)C[C@H](NC(=O)CNC(=O)c1cc(Cl)ccc1Cl)B(O)O [ixazomib]
- Time to Emax, whole blood 20S proteasome ([1]; day 1, 0.125 mg/m^2 IV, n = 1): 1.0 h
- Emax, whole blood 20S proteasome ([1]; day 1, 0.125 mg/m^2 IV, n = 1, individual value): 7.7 % inhibition
- Time to Emax, whole blood 20S proteasome ([1]; day 1, 0.25 mg/m^2 IV, n = 1): 0.10 h
- Emax, whole blood 20S proteasome ([1]; day 1, 0.25 mg/m^2 IV, n = 1, individual value): 17.9 % inhibition
- Time to Emax, whole blood 20S proteasome ([1]; day 1, 0.5 mg/m^2 IV, n = 1): 0.25 h
- Emax, whole blood 20S proteasome ([1]; day 1, 0.5 mg/m^2 IV, n = 1, individual value): 28.2 % inhibition
- Emax, whole blood 20S proteasome ([1]; day 1, 1 mg/m^2 IV, n = 7, mean (± SD)): 36.9 (±19.4) % inhibition
- Time to Emax, whole blood 20S proteasome ([1]; day 1, 1 mg/m^2 IV, n = 7, median (range)): 0.10 (0.08–0.10) h
- Emax, whole blood 20S proteasome ([1]; day 1, 1.33 mg/m^2 IV, n = 4, mean (± SD)): 46.7 (±9.4) % inhibition
- Time to Emax, whole blood 20S proteasome ([1]; day 1, 1.33 mg/m^2 IV, n = 4, median (range)): 0.25 (0.1–0.25) h
- Emax, whole blood 20S proteasome ([1]; day 1, 1.76 mg/m^2 IV, n = 19, mean (± SD)): 61.3 (±7.9) % inhibition
- Time to Emax, whole blood 20S proteasome ([1]; day 1, 1.76 mg/m^2 IV, n = 19, median (range)): 0.10 (0.067–0.267) h
- Emax, whole blood 20S proteasome ([1]; day 1, 2.34 mg/m^2 IV, n = 3, mean (± SD)): 64.4 (±3.4) % inhibition
- Time to Emax, whole blood 20S proteasome ([1]; day 11, 0.125 mg/m^2 IV, n = 1): 24.0 h
- Emax, whole blood 20S proteasome ([1]; day 11, 0.125 mg/m^2 IV, n = 1, individual value): 4.5 % inhibition
- Time to Emax, whole blood 20S proteasome ([1]; day 11, 0.25 mg/m^2 IV, n = 1): 0.083 h
- Emax, whole blood 20S proteasome ([1]; day 11, 0.25 mg/m^2 IV, n = 1, individual value): 10.0 % inhibition
- Time to Emax, whole blood 20S proteasome ([1]; day 11, 0.5 mg/m^2 IV, n = 1): 0.1 h
- Emax, whole blood 20S proteasome ([1]; day 11, 0.5 mg/m^2 IV, n = 1, individual value): 46.1 % inhibition
- Emax, whole blood 20S proteasome ([1]; day 11, 1 mg/m^2 IV, n = 6, mean (± SD)): 38.9 (±8.35) % inhibition
- Time to Emax, whole blood 20S proteasome ([1]; day 11, 1 mg/m^2 IV, n = 6, median (range)): 0.1 (0.0–0.117) h
- Emax, whole blood 20S proteasome ([1]; day 11, 1.33 mg/m^2 IV, n = 3, mean (± SD)): 54.3 (±4.1) % inhibition
- Time to Emax, whole blood 20S proteasome ([1]; day 11, 1.33 mg/m^2 IV, n = 3, median (range)): 0.083 (0.083–0.1) h
- Emax, whole blood 20S proteasome ([1]; day 11, 1.76 mg/m^2 IV, n = 15, mean (± SD)): 62.5 (±7.71) % inhibition
- Time to Emax, whole blood 20S proteasome ([1]; day 11, 1.76 mg/m^2 IV, n = 15, median (range)): 0.10 (0.083–0.283) h
- Emax, whole blood 20S proteasome ([1]; day 11, 2.34 mg/m^2 IV, n = 3, mean (± SD)): 72.5 (±4.71) % inhibition
- Time to Emax, whole blood 20S proteasome ([1]; day 11, 2.34 mg/m^2 IV, n = 3, median (range)): 0.10 (0.083-0.133) h
- inhibition at 1.76 mg/m2 ([1]; read-out: Average maximal inhibition of 20S proteasome activity in whole blood): 60%
- Recovery of 20S proteasome activity to predose levels ([1]; single-dose administration on day 1, except dose level greater than the MTD): ≤ 24 h
- Patients with stable disease ([2]; 92 response-evaluable patients): 30 patients
- Patients with stable disease lasting for ≥4 cycles ([2]; 92 response-evaluable patients): eight
- Patients with partial response ([2]; 92 response-evaluable patients, head and neck cancer, MTD 1.76 mg/m^2): one
- Reduction in tumor diameter ([2]; one patient with kidney malignancy, progressive disease at end of study): 14%
- Reduction in tumor diameter ([2]; other patient with kidney malignancy, discontinued due to grade 3 acute renal failure): 22%
- Total duration of partial response ([2]; patient with head and neck cancer, achieved after 4 cycles, maintained for 8 cycles): 6.7 months
